The values below come from US20060069132A1, “Azolecarboxamide herbicides” (priority 2004, published 2006).

Test in all cases: Test C pre-/postemergence herbicide test
For one test, the system named is pigweed. It counts as in vivo, Amaranthus retroflexus. The gist of the method: (§1)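 Visual injury scores run from 0 (no effect) to 100 (complete control), assessed relative to untreated controls 12 to 14 days after treatment in the greenhouse. Chemicals were formulated in a non-phytotoxic solvent mixture with surfactant and applied to soil after planting or to emerged plants at the 1- to 4-leaf stage.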

The test system of a further test is corn. In kind it is in vivo, Zea mays. The gist of the method: as §1
The next test concerns lambsquarters. It counts as in vivo, Chenopodium album. The gist of the method:
as §1

A further test relates to velvetleaf. In kind it is in vivo, Abutilon theophrasti. The method, boiled down: as §1
The next test concerns Surinam grass. It counts as in vivo, Urochloa decumbens. The method, boiled down:
as §1

In another test the test system is kochia. In kind it is in vivo, Kochia scoparia. The method, boiled down:
as §1

The mark [1] stands for this setting: 62 g ai/ha, preemergence, scale 0 to 100.
Setting [2] is: 500 g ai/ha, scale 0 to 100 (0 no effect, 100 complete control), visual, 12 to 14 days, preemergence.
Where [3] appears, read: 250 g ai/ha, scale 0-100, preemergence.

As to `CCNC(=O)c1cccc(NC(=O)c2nn(C(C)(C)C)cc2Br)c1` [Compound 221, 4-bromo-1-(1,1-dimethylethyl)-N-[3-[(ethylamino)carbonyl]phenyl]-1H-pyrazole-3-carboxamide], the pest or weed control at 62 g/ha in the test on pigweed (Amaranthus retroflexus, pre-emergence, 62 g ai/ha, preemergence, scale 0 to 100, read-out: Plant response rating, Pigweed) came out at 90%; with lambsquarters (Chenopodium album, pre-emergence, 62 g ai/ha, preemergence, scale 0 to 100, read-out: Plant response rating, Lambsquarters) it was 0%; in the test on velvetleaf (Abutilon theophrasti, pre-emergence, 62 g ai/ha, preemergence, scale 0 to 100, read-out: Plant response rating, Velvetleaf), 0%; with Surinam grass (Urochloa decumbens, pre-emergence, 312 h, 62 g ai/ha, preemergence, scale 0 to 100, read-out: Plant response rating, Surinam Grass), 0%; in the test on kochia (Bassia scoparia, pre-emergence, 62 g ai/ha, preemergence, scale 0 to 100, read-out: Plant response rating, Kochia) it was 0%. The pest or weed control at 125 g/ha in the test on pigweed (Amaranthus retroflexus, pre-emergence, 125 g ai/ha, scale 0 (no effect) to 100 (complete control), visual, 12 to 14 days, read-out: Plant response rating, Pigweed) is 100%; in the test with lambsquarters (Chenopodium album, pre-emergence, 125 g ai/ha, scale 0 (no effect) to 100 (complete control), visual, 12 to 14 days, read-out: Plant response rating, Lambsquarters), 20%; in the test on kochia (Bassia scoparia, pre-emergence, 125 g ai/ha, scale 0 (no effect) to 100 (complete control), visual, 12 to 14 days, read-out: Plant response rating, Kochia) it was 0%. In addition, the pest or weed control at 250 g/ha with pigweed (Amaranthus retroflexus, pre-emergence, 250 g ai/ha, scale 0-100, read-out: Plant response rating, Pigweed) was 100%; in the test on lambsquarters (Chenopodium album, pre-emergence, 250 g ai/ha, scale 0-100, read-out: Plant response rating, Lambsquarters), 90%; with velvetleaf (Abutilon theophrasti, pre-emergence, 250 g ai/ha, scale 0-100, read-out: Plant response rating, Velvetleaf), 60%; in the test with Surinam grass (Urochloa decumbens, pre-emergence, 312 h, 250 g ai/ha, scale 0-100, read-out: Plant response rating, Surinam Grass) it was 10%; in the test on kochia (Bassia scoparia, pre-emergence, 250 g ai/ha, scale 0-100, read-out: Plant response rating, Kochia), 65%. In addition, the pest or weed control at 500 g/ha with pigweed (Amaranthus retroflexus, pre-emergence, 500 g ai/ha, scale 0 to 100 (0 no effect, 100 complete control), visual, 12 to 14 days, read-out: Plant response rating, Pigweed) turned out to be 100%; with lambsquarters (Chenopodium album, pre-emergence, 500 g ai/ha, scale 0 to 100 (0 no effect, 100 complete control), visual, 12 to 14 days, read-out: Plant response rating, Lambsquarters), 100%; with velvetleaf (Abutilon theophrasti, pre-emergence, 500 g ai/ha, scale 0 to 100 (0 no effect, 100 complete control), visual, 12 to 14 days, read-out: Plant response rating, Velvetleaf) it was 80%; in the test with Surinam grass (Urochloa decumbens, pre-emergence, 312 h, 500 g ai/ha, scale 0 to 100 (0 no effect, 100 complete control), visual, 12 to 14 days, read-out: Plant response rating, Surinam Grass), 45%; in the test on kochia (Bassia scoparia, pre-emergence, 500 g ai/ha, scale 0 to 100 (0 no effect, 100 complete control), visual, 12 to 14 days, read-out: Plant response rating, Kochia) it was 100%. The Corn plant response rating (crop injury, 0 = no effect, 100 = complete kill) at 62 g/ha with corn (Zea mays, pre-emergence, 312 h, 62 g ai/ha, preemergence, scale 0 to 100) was determined as 0%. Also, the Corn plant response rating (crop injury, 0 = no effect, 100 = complete kill) at 125 g/ha in the test with corn (Zea mays, pre-emergence, 312 h, 125 g ai/ha, scale 0 (no effect) to 100 (complete control), visual, 12 to 14 days) came out at 0%. The compound further yielded a Corn plant response rating (crop injury, 0 = no effect, 100 = complete kill) at 250 g/ha in the test with corn (Zea mays, pre-emergence, 312 h, 250 g ai/ha, scale 0-100) of 0%. In the test with corn (Zea mays, pre-emergence, 312 h, 500 g ai/ha, scale 0 to 100 (0 no effect, 100 complete control), visual, 12 to 14 days), this compound came in with a Corn plant response rating (crop injury, 0 = no effect, 100 = complete kill) at 500 g/ha of 10%.

With `Cc1nn(C(C)(C)C)nc1C(=O)Nc1cccc(C(=S)N(C)C)c1` [Compound 419], the “Plant response rating, Pigweed” value in the test with pigweed (setting [1]) and in the test with pigweed (setting [2]) was 100 throughout. For the same compound, in the test with pigweed (125 g ai/ha, preemergence), the “Plant response rating (0 = no effect, 100 = complete control), Pigweed” value is listed as 100. The entries for the “Plant response rating, Corn” value in the test on corn (setting [1]), in the test on corn (setting [3]) and in the test with corn (setting [2]) were 0, 0 and 40, respectively. In the test with corn (125 g ai/ha, preemergence), the “Plant response rating (0 = no effect, 100 = complete control), Corn” value came out at 0. The “Plant response rating, Lambsquarters” value in the test with lambsquarters (setting [1]) is reported as 95; in the test on lambsquarters (setting [3]), 100; in the test with lambsquarters (setting [2]), 100. Also, the “Plant response rating (0 = no effect, 100 = complete control), Lambsquarters” value in the test on lambsquarters (125 g ai/ha, preemergence) was determined as 95. Moreover, the “Plant response rating, Velvetleaf” value in the test with velvetleaf (setting [1]) and in the test with velvetleaf (setting [2]) was 100 throughout. Moreover, the “Plant response rating (0 = no effect, 100 = complete control), Velvetleaf” value in the test with velvetleaf (125 g ai/ha, preemergence) came out at 100. In addition, the “Plant response rating, Surinam Grass” value with Surinam grass (setting [1]) is recorded as 0; with Surinam grass (setting [2]), 100. In the test with Surinam grass (125 g ai/ha, preemergence), the “Plant response rating (0 = no effect, 100 = complete control), Surinam Grass” value was found to be 45. The “Plant response rating, Kochia” value in the test with kochia (setting [1]) is on record as 90; with kochia (setting [3]), 100; in the test on kochia (setting [2]), 100. Moreover, the “Plant response rating (0 = no effect, 100 = complete control), Kochia” value in the test on kochia (125 g ai/ha, preemergence) was 95.
